Ends that are not written are not given here.
How the values were obtained:
[1] = test system: E. coli AIC221; conditions: AIC221, 24 h
[2] = test system: E. coli AIC222 (polymyxin resistant; colistin-resistant strain); conditions: 24 h
[3] = test system: P. aeruginosa PAO1; conditions: PAO1, 24 h
[4] = test system: P. aeruginosa PA14; conditions: PA14, 24 h
[5] = test system: E. faecium ATCC 700221 - VRE; conditions: ATCC 700221, 24 h
[6] = test system: HEK293T cells; conditions: for CC50 vs HEK293T cells (source data of Figure 4a): 24 h
[7] = test system: human red blood cells; conditions: pH 7.4
[8] = test system: A. baumannii ATCC 19606; conditions: ATCC 19606, 24 h
[9] = test system: E. coli ATCC 11775; conditions: ATCC 11775, 24 h
[10] = test system: K. pneumoniae ATCC 13883; conditions: ATCC 13883, 24 h
[11] = test system: S. aureus ATCC 12600; conditions: ATCC 12600, 24 h
[12] = test system: S. aureus ATCC BAA-1556 - MRSA; conditions: ATCC BAA-1556, 24 h
[13] = test system: E. faecalis ATCC 700802 - VRE; conditions: ATCC 700802, 24 h

Sequence	Minimal Inhibitory Concentration, E. coli AIC221 (-) [1] [µmol/L]	Minimal Inhibitory Concentration, E. coli AIC222 (-) [2] [µmol/L]	Minimal Inhibitory Concentration, P. aeruginosa PAO1 (-) [3] [µmol/L]	Minimal Inhibitory Concentration, P. aeruginosa PA14 (-) [4] [µmol/L]	Minimal Inhibitory Concentration, E. faecium ATCC 700221 - VRE (+) [5] [µmol/L]	SIcytotoxicity [6]	CC50 vs HEK293T cells (source data of Figure 4a) [6] [µM]	HC50 [7]	Minimal Inhibitory Concentration, A. baumannii ATCC 19606 (-) [8] [µmol/L]	Minimal Inhibitory Concentration, E. coli ATCC 11775 (-) [9] [µmol/L]	Minimal Inhibitory Concentration, K. pneumoniae ATCC 13883 (-) [10] [µmol/L]	Minimal Inhibitory Concentration, S. aureus ATCC 12600 (+) [11] [µmol/L]	Minimal Inhibitory Concentration, S. aureus ATCC BAA-1556 - MRSA (+) [12] [µmol/L]	CC50 vs HEK293T cells [6] [µM]	Minimal Inhibitory Concentration, E. faecalis ATCC 700802 - VRE (+) [13] [µmol/L]
SKKQIRLYLLKYYGKKLFKKRPK [Arachnoserver-19]	32	32	16	16	8	2.1	16.68	163.3	–	–	–	–	–	–	–
KIKWLKAMKSIAKFIAKK [Arachnoserver-5]	2	–	4	2	8	7.0	13.96	46.7	8	2	2	–	–	–	–
KNKRFIRNLRSNLYQKIIKSTKSLL [Arachnoserver-9]	8	–	16	16	16	2.9	23.56	4947.0	32	16	16	–	–	–	–
KFSVFSKILRSIAKVF [Arachnoserver-18]	4	–	32	16	8	3.1	12.34	53.5	8	4	–	16	16	–	–
RGLAKLLKIGLKSFARVLKK [Arachnoserver-12]	4	–	16	8	8	2.1	8.419	40.1	32	16	32	64	64	8	–
KIKWFKTMKSLAKFLAK [Arachnoserver-33]	4	–	32	8	32	8.0	–	144.1	8	8	4	–	–	–	–
KLLKIGLKSFARVLKKVL [Arachnoserver-1]	4	–	–	8	16	6.6	26.22	82.7	16	8	8	16	16	–	–
KLKKLRKWIYRIV [UniprotKB-8]	–	–	–	–	16	3.5	27.64	636.4	32	16	64	–	–	–	–
RRVKRFKKFFRKLKKSVKKRAKEFFK [ISOB-1]	8	–	4	8	16	28.9	–	2001.0	64	16	–	64	–	–	–
KRLRAKMLNSKFIKLIKR [Conoserver-1]	16	–	32	32	32	5.2	–	1.085e+083	–	–	–	–	32	–	–
KLSGISKVLRAIAKFFK [Arachnoserver-28]	32	–	32	8	8	0.8	6.347	38.2	32	64	32	32	32	6	–
LLHFSIWRSTVLRK [ISOB-4]	–	–	–	–	16	9.7	–	24308.0	–	–	–	–	–	–	64
KLLKIGLKSFARVLKKVL [UniprotKB-1]	4	–	8	8	–	2.5	10.13	34.9	–	8	–	16	–	10	–
RKFNWGKLFKSAKKLYKTGKKLSKNKNVRKALKFGK [Arachnoserver-7]	1	–	8	4	8	6.8	6.812	7.0	8	8	64	–	–	7	–

Reference: paper PMC12254355 (Nature Communications, 2025)
